Data set [1] is described as follows: Moisturizing test: moisturizing effect by water retention force. It is filed as physicochemical. On the procedure: A sample shown later was dried, and the dried sample was spread in an amount of about 0.4 g (this weight is represented by W0) on the bottom of a weighing bottle (diameter: 3.6 cm, height excluding lid: 1.8 cm) so as to give uniform thickness. The sample contained in the weighing bottle was allowed to stand still in a constant humidity and constant temperature vessel (ENVIROS KCL-1000, TOKYO RIKAKIKAI CO, LTD) under environments of 25° C. and 65% RH. The weight was measured periodically, waiting until sufficient moisture absorption to attain equilibrium of weight increase (about 48 hours). Thereafter, the sample was transferred to under environments of 25° C. and 20% RH (in sealed vessel containing a saturated CH3COOK aqueous solution filled in the bottom part). From the weight after 24 hours (this weight is represented by W1), the amount of retained water per 1 g of the dried sample was calculated according to the following formula. (W1−W0)/W0
From the water amount thus calculated, the moisturizing effect was judged based on the following judging criterion, and the results are shown in Table 43.
Three compounds: 2,3-di-O-glyceryl ascorbic acid, 2,3-di-O-phenylglyceryl ascorbic acid, and glycerin, and
Six compounds: ascorbic acid, ascorbic acid glucoside, 2-O-glyceryl ascorbic acid, 3-O-glyceryl ascorbic acid, 3-O-butylglyceryl ascorbic acid and 3-O-octylglyceryl ascorbic acid, which were adjusted to pH7 with a dilute sodium hydroxide aqueous solution and concentrated.
◯: 25 mg or more and less than 40 mg
Δ: 10 mg or more and less than 25 mg

Data set [2] can be described thus: Stability Test 2: 2% aqueous solution, pH7, 50° C., 4 weeks (residual rate, odor, coloration). It is filed as physicochemical. As for the experimental part:
(§1) Aqueous solutions (2%) of various test samples were adjusted to pH7 with a dilute sodium hydroxide aqueous solution, and charged into 50 mL screw tubes, and the tubes were sealed and stored at room temperature for 4 weeks. Thereafter, HPLC measurement were performed (using liquid chromatography manufactured by Tosoh Corp.) and the residual rate was obtained based on the peak area. The residual rate, odor(odor change) and degree of coloration were evaluated based on the following methods and standards, and the results are shown in Table 41.
The same test as in Test Example 2 was carried out excepting that the sample was stored at 50° C. for 4 weeks instead of storing at room temperature for 4 weeks.

The subject of the next data set is B16 melanoma 4A5 cell. The data set is described as follows: Whitening test: theophylline-induced melanine production in B16 melanoma 4A5 cells.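 Also: grades: ± under 20% + 20-40% ++ 40-70% +++ 70-100% suppression.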 It is filed as cell-based, mouse. To be noted: sample at a concentration of 100 μM or less; theophylline-induced melanine production; 3 days culture; N=4. On the procedure:
As a test for a whitening effect, evaluation of the action of B16 melanoma 4A5 cell on theophylline-induced melanine production was carried out on an ascorbic acid derivative of the present invention, according to the following procedure. The same evaluation was carried out also on ascorbic acid, known compounds: ascorbic acid salts, and ascorbic acid derivatives, as comparison. The results are shown in Tables 38 to 40. • (1) B16 mouse melanoma 4A5 strain was sowed onto a 48-well plate at a cell density of 2.0×10^4 cells/well. • (2) Culturing was performed for 24 hours with Dulbecco's Modified Eagle's medium (manufactured by SIGMA. Hereinafter, abbreviated as D-MEM) containing 10% fetal bovine serum (manufactured by Roshe Diagnostics). Then, it was changed to 0.2 mM theophylline and a 10% fetal bovine serum-containing D-MEM which contains a sample of given concentration. • (3) After culturing for 3 days in the co-existence of a sample, the medium was removed using an aspirator. Then, after distilled water was added, cells were broken by an ultrasonic wave. • (4) Thereafter, the amount of protein was determined using BCA protein assay kit (manufactured by PIERCE), and the produced amount of melanine was measured by an alkali solubilizing method. To the cell-destructed solution was added sodium hydroxide so as to give a final concentration of 2N and the mixture was dissolved by heating (60° C., 15 minutes), then, the absorbance at 450 nm was measured using a micro plate reader. The melanine amount was calculated from a calibration curve made using synthetic melanine (SIGMA) as a standard. The melanine amount per unit protein was calculated by dividing the melanine amount by the protein amount. • (5) The melanine production suppressing rate was calculated according to the following formula. Melanine production suppressing rate (%)=[1−(A−B)/(C−B)]×100 [wherein, A represents the melanine amount per unit protein (g/g) in adding a sample, B represents the melanine amount per unit protein (g/g) in the normal group, and C represents the melanine amount per unit protein (g/g) in the control group.]
In the following Tables, the melanine production suppressing rate in measuring a sample at a concentration of 100 μM or less is expressed as described below. The measurement was carried out at N=4.

Data set [3] concerns Normal human dermal fibroblasts. The data set is described as follows: Collagen production of human fibroblast (Sircol collagen assay, 100 μM, 48 hours). It counts as cell-based. To be noted: Homo sapiens, Fibroblast, cultured 48 hours, N=4, read-out: Collagen production promoting effect (collagen production amount, % of control group). As for the experimental part:
(§2) Normal human dermal fibroblasts were regulated with a 10% (v/v) fetal bovine serum (manufactured by Roshe Diagnostics)-containing D-MEM so as to give a cell density of 2.5×10^4 cells/well, then, pre-incubation for 24 hours was performed on a 96-well plate. After the medium was removed, a sample regulated with a 5% (v/v) fetal bovine serum-containing D-MEM to a concentration of 100 μM was added to each well, then, cultured for 48 hours under 37° C. and 5% CO2. After completion of culturing, the amount of free collagen was measured using Sircol collagen assay kit (manufactured by Biocolor). The measurement was carried out at N=4.
The collagen production amount in measuring a sample at a concentration of 100 μM was compared with the control group, and the results thereof (% value when the control group is 100%) are shown in Tables 44 and 45 based on the following standard.

The test system is the same in data set [4]. Put plainly: Collagen production of human fibroblast 2 (100 μM or 500 μM; 2, 4 and 7 days). It counts as cell-based. To be noted: for Collagen production amount in comparison with the control group (% value when the control group is 100%): 100 μM or 500 μM (not stated which), average ± standard error, N=4. As for the experimental part: as §2
Free collagen was measured under the same conditions as in Test Example 5 excepting that the concentration of each sample was 100 μM or 500 μM and culturing was carried out for 2 days, 4 days and 7 days. The measurement was carried out at N=4, and the average and standard error, in four test examples, of values of the collagen production amount in comparison with the control group (% value when the control group is 100%) are shown in Tables 46 and 47.

The nature of data set [5]: Stability Test 1: 2% aqueous solution, pH7, room temperature, 4 weeks (residual rate, odor, coloration). It is filed as physicochemical. On the procedure:
as §1
◯: 80% or more and less than 90%
Δ: 60% or more and less than 80%
X: 20% or more and less than 60%
It was evaluated according to the following criterion by 10 panelists.
Based on the evaluation results, classification was conducted as shown below.
◯: total point of 10 panelists is 25 or more
Δ: total point of 10 panelists is 16 to 24
X: total point of 10 panelists is 15 or less
3: almost no change as compared with that immediately after preparation
2: coloration is observed as compared with that immediately after preparation
1: intense coloration is observed as compared with that immediately after preparation

Setting [6] is: storage period 2 weeks, 10 panelists.
The mark [7] stands for this setting: storage period 4 weeks, 10 panelists.

Regarding 3-O-butylglycerylascorbic acid, the “Judgement of moisturizing effect (water amount)” value (“Judgement of moisturizing effect” for short) in data set [1] is “◯ (◯: 25 mg or more and less than 40 mg)”.
3-O-octylglycerylascorbic acid: in data set [1], the “Judgement of moisturizing effect” value was “Δ (Δ: 10 mg or more and less than 25 mg)”.
As for `OCC(O)CO` [glycerin, reference compound], the “Judgement of moisturizing effect” value in data set [1] is on record as “⊚ (⊚: 40 mg or more)”.
On the same count and under the same terms, then `O=C1O[C@H]([C@@H](O)CO)C(OCC(O)CO)=C1O` (stereo partly shown) [3-O-glycerylascorbic acid], with “◯ (◯: 25 mg or more and less than 40 mg)”; and `O=C1O[C@H]([C@@H](O)CO)C(OCC(O)CO)=C1OCC(O)CO` (stereo partly shown) [2,3-di-O-glycerylascorbic acid], with “⊚ (⊚: 40 mg or more)”.
Take `CCCCCCCCOC1=C(OCC(O)CO)[C@@H]([C@@H](O)CO)OC1=O` (stereo partly shown) [Example 14, 3-O-glyceryl-2-O-octyl ascorbic acid]: the Residual rate entry in data set [2] (storage period 0), in data set [2] (storage period 2 weeks), in data set [2] (storage period 4 weeks), in data set [5] (storage period 0), in data set [5] (storage period 2 weeks) and in data set [5] (storage period 4 weeks) was “⊚ (⊚: 90% or more)” each time. Moreover, the Coloration result is “◯ (◯: total point of 10 panelists is 25 or more)” in data set [2] (storage period 0, 10 panelists); “◯ (◯: total point of 10 panelists is 25 or more)” in data set [2] (setting [6]); “◯ (◯: total point of 10 panelists is 25 or more)” in data set [2] (setting [7]); “◯ (◯: total point of 10 panelists is 25 or more)” in data set [5] (storage period 0, 10 panelists); “◯ (◯: total point of 10 panelists is 25 or more)” in data set [5] (setting [6]); “◯ (◯: total point of 10 panelists is 25 or more)” in data set [5] (setting [7]). The Odor result in data set [2] (storage period 0, 10 panelists) is listed as “◯ (◯: total point of 10 panelists is 25 or more)”; in data set [2] (setting [6]), “◯ (◯: total point of 10 panelists is 25 or more)”; in data set [2] (setting [7]), “◯ (◯: total point of 10 panelists is 25 or more)”; in data set [5] (storage period 0, 10 panelists), “◯ (◯: total point of 10 panelists is 25 or more)”; in data set [5] (setting [6]), “◯ (◯: total point of 10 panelists is 25 or more)”; in data set [5] (setting [7]) it was “◯ (◯: total point of 10 panelists is 25 or more)”. Also, the “Whitening effect (melanine production suppressing rate)” value in the data set on B16 melanoma 4A5 cell is recorded as “+++ (70 to 100%:+++)”. For the same molecule, the activity at 100 µM in data set [3] was 100 to 200%. Moreover, the “Collagen production amount in comparison with the control group (% value when the control group is 100%)” value in data set [4] (Table 47, culturing period 2 days) came out at 132 ± 22%; in data set [4] (Table 47, culturing period 4 days), 144 ± 9%; in data set [4] (Table 47, culturing period 7 days), 238 ± 17%.
For the molecule `O=C1O[C@H]([C@@H](O)CO)C(OCC(O)CO)=C1O` (stereo partly shown) [Example 1, 3-O-glyceryl ascorbic acid], the “moisturizing effect (in words)” value in data set [1] (conclusion from Table 43, compared with ascorbic acid) is reported as “more excellent moisturizing effect than ascorbic acid”.
On to `O=C1O[C@H]([C@@H](O)CO)C(O)=C1OCC(O)CO` (stereo partly shown) [2-O-glycerylascorbic acid], for which the “Judgement of moisturizing effect” value in data set [1] was “⊚ (⊚: 40 mg or more)”.
Consider 2,3-di-O-phenylglycerylascorbic acid, for which, in data set [1], the “Judgement of moisturizing effect” value is “Δ (Δ: 10 mg or more and less than 25 mg)”.
With `CCOC1=C(O)C(=O)O[C@@H]1[C@@H](O)CO` [3-O-ethylascorbic acid, reference compound], the Residual rate result was “◯ (◯: 80% or more and less than 90%)” in data set [2] (storage period 0); “X (X: 20% or more and less than 60%)” in data set [2] (storage period 2 weeks); “X (X: 20% or more and less than 60%)” in data set [2] (storage period 4 weeks); “⊚ (⊚: 90% or more)” in data set [5] (storage period 0); “◯ (◯: 80% or more and less than 90%)” in data set [5] (storage period 2 weeks); “◯ (◯: 80% or more and less than 90%)” in data set [5] (storage period 4 weeks). In addition, the Coloration result is recorded as “◯ (◯: total point of 10 panelists is 25 or more)” in data set [2] (storage period 0, 10 panelists); “Δ (Δ: total point of 10 panelists is 16 to 24)” in data set [2] (setting [6]); “Δ (Δ: total point of 10 panelists is 16 to 24)” in data set [2] (setting [7]); “◯ (◯: total point of 10 panelists is 25 or more)” in data set [5] (storage period 0, 10 panelists); “◯ (◯: total point of 10 panelists is 25 or more)” in data set [5] (setting [6]); “Δ (Δ: total point of 10 panelists is 16 to 24)” in data set [5] (setting [7]). The Odor result in data set [2] (storage period 0, 10 panelists) was “◯ (◯: total point of 10 panelists is 25 or more)”; in data set [2] (setting [6]), “Δ (Δ: total point of 10 panelists is 16 to 24)”; in data set [2] (setting [7]) it was “Δ (Δ: total point of 10 panelists is 16 to 24)”; in data set [5] (storage period 0, 10 panelists), “◯ (◯: total point of 10 panelists is 25 or more)”; in data set [5] (setting [6]), “◯ (◯: total point of 10 panelists is 25 or more)”; in data set [5] (setting [7]) it was “◯ (◯: total point of 10 panelists is 25 or more)”. In addition, in the data set on B16 melanoma 4A5 cell, the “Whitening effect (melanine production suppressing rate)” value is “+ (20 to 40%:+)”. Besides, the activity at 100 µM in data set [3] was in the range of 100 to 200%. Besides, in data set [4] (100 μM or 500 μM, culturing 2, 4 and 7 days), the “collagen production promoting effect over time (in words)” value is given as “lowers over time”. The “Collagen production amount in comparison with the control group (% value when the control group is 100%)” value in data set [4] (Table 46, culturing period 2 days) turned out to be 140 ± 4%; in data set [4] (Table 46, culturing period 4 days) it was 138 ± 2%; in data set [4] (Table 46, culturing period 7 days) it was 106 ± 14%.

The values are drawn from US8163939B2, “Ascorbic acid derivative or salt thereof, production method thereof, and cosmetic” (Seikwa Kasei Company, Limited, priority 2007, dated 2012).
